Test results from patent US20260174682A1, “GAMMA-AMINOBUTYRIC ACID DERIVATIVE COMPRISING POLYCYCLIC STRUCTURE, METHOD FOR PREPARING SAME, AND USE THEREOF” (ZHONGSHAN INSTITUTE FOR DRUG DISCOVERY, SIMM, CAS., priority 2022, published 2026).
“And” between values parts separate entries of the source, which are not always exact repeats. Identical values can stand only once. Marks after values point to notes of the source that are not given here.

Tests used:
male SD rats = assay: Acute toxicity test on rats; conditions: for Observation of clinical symptoms 0.5 h / Observation of clinical symptoms 1 h / Observation of clinical symptoms 2 h / Observation of clinical symptoms 4 h / Observation of clinical symptoms 6 h / Observation of clinical symptoms 24 h: per animal
Protocol: After adapting to the environment for one week, the SD rats were used in a preliminary acute toxicity test. The compounds were newly formulated on the day of the test. […] After being labeled and weighed, the animals were randomly grouped with 2-4 animals in each group. […] Clinical symptoms of each animal were observed and recorded at 0.5 hours, 1 hour, 2 hours, 4 hours, 6 hours and 24 hours after the administration, respectively. Clinical symptom codes were as follows: 0 no abnormality, 1 mild tremor, 2 unsteady gait, 3 prone position, 4 startle reflex, 5 difficult breathing, 6 righting reflex disappeared, 7 eyelid closure, 8 shortness of breath, and x animal death.

[1] = Pharmacokinetic test on rats; assay type: in vivo, rat; conditions: male SD rats; for t1/2: data based on free base
Protocol: Male SD rats were fasted for 12 h before the test and then allowed to drink water freely. The compound (+)—I-3 p-toluenesulfonate or (+)—I-4 p-toluenesulfonate of the present application was dissolved with a 10% distilled water solution of 1,2-propanediol and then administered orally or intravenously to the male SD rats, with 3 rats in each group. At 15 min, 30 min, 1 hour, 2 hours, 3 hours, 4 hours, 6 hours, 8 hours and 24 hours after the oral administration or at 5 min, 15 min, 30 min, 1 hour, 2 hours, 3 hours, 4 hours, 6 hours, 8 hours and 24 hours after the intravenous administration, 0.2 mL of blood was taken from retroocular venous plexuses, placed in an EDTA-K2 test tube, centrifuged at 11,000 rpm for 5 min to separate plasma, and frozen in a refrigerator at −20° C. The concentration of a drug prototype was determined by HPLC-ESI-MS according to a verified method, and pharmacokinetic parameters were calculated by WinNonLin.

[2] = tested on: mouse maximum electroshock model (MES); assay: Antiepileptic effect in mouse maximum electroshock model (MES); assay type: in vivo; conditions: gavage; for Number of animals with tonic straightening of hind limbs/total number of detected animals / Protection rate (%): MES, ICR mice
Protocol: A negative vehicle control group, a positive drug control group (pregabalin and gabapentin) and a test group of the compounds of the present application were set. Male ICR mice with a body weight of […] were selected. […] After fasted for 12 h, the mice were administered the compounds of the present application or the control drugs according to the body weight, and then subjected to electrical stimulation to induce generalized tonic-clonic seizure behaviors after a certain lime interval (2 h for pregabalin, 1 h for gabapentin, and 3 h for the compounds of the present application). A YLS-9A electrophysiological stimulator (Shanghai Xinruan Information Technology Co., Ltd.) was used in an induction model, and parameters were set as follows: configuration 8, stimulation voltage 160 V, wave number 90. When the electrical stimulation was performed, ears on both sides of the mice were firstly wiped with normal saline and then given the electrical stimulation for 1 lime with ear clip electrodes. Tonic straightening of hind limbs was used as a standard for epilepsy seizures. The animals with the tonic straightening of hind limbs were regarded as not being protected by the drugs, and the animals without the tonic straightening of hind limbs were regarded as being protected by the drugs. Response situations of the animals were observed and recorded, and obtained data were counted to calculate protection rates of the compounds.
Median effective doses (ED50) of the compounds to be tested for animal protection were calculated by a least square method (Graphpad Prism 5) with an administration dose-protection rate curve.

[3] = tested on: mouse 6-Hz psychomotor seizure model; assay: Antiepileptic effect in mouse 6-Hz psychomotor seizure model; assay type: in vivo; conditions: 6-Hz model, C57BL/6 mice, gavage
Protocol: A negative vehicle control group, a positive drug control group (pregabalin and gabapentin) and a test group of the compounds of the present application were set. Male C57BL/6 mice with a body weight of 20±2 g were selected. […] After fasted for 12 h, the mice were administered the compounds of the present application or the control drugs, and then subjected to 6-Hz electrical stimulation to induce epilepsy seizure behaviors after a certain time interval (2 h for pregabalin, 1 h for gabapentin, 1 h for levetiracetam, and 3 h for the compounds of the present application). In an induction model, when the stimulation was performed with a Model 4100 stimulator (A-M Systems, the United States), rear necks of the mice were immobilized by hands on a feeding cage, a corneal electrode was moisten with normal saline and allowed to gently contact bilateral corneas of the mice, the electrical stimulator was trod by a foot to give the mice the electrical stimulation with a stimulation parameter of 6-Hz, a one-way square wave of 32 mA, a wave width of 0.2 ms and a stimulation duration of 3 sec, and timing was performed with a stopwatch during the stimulation. After the electrical stimulation was completed, the mice with the seizure behaviors lasting for less than 7 sec were regarded as being protected by the drugs, and the mice with the seizure behaviors lasting for more than 7 sec were regarded as being not protected from the epilepsy by the drugs. Response situations of the animals were observed and recorded, and obtained data were counted to calculate protection rates of the compounds.
Statistical method: The protection rates of different administration groups were separately compared with that of the vehicle control group to carry out a Fisher's exact test.

postherpetic neuralgia = conditions: 150-600 mg per day; cited from earlier work
[4] = oral gavage 163.8 mg/kg (calculated by free base)
[5] = oral gavage 300 mg/kg (calculated by free base)
[6] = gavage vs intravenous injection
[7] = intravenous injection, 1.10 / 1.09 mg/kg
[8] = dose 3 mg/kg (own compounds calculated by free base)
[9] = dose 6 mg/kg (own compounds calculated by free base)
[10] = dose 10 mg/kg (own compounds calculated by free base)
[11] = dose 18 mg/kg (own compounds calculated by free base)
[12] = dose 30 mg/kg (own compounds calculated by free base)
[13] = dose 60 mg/kg (own compounds calculated by free base)
[14] = dose 60 mg/kg (calculated by free base)

## Cc1ccc(S(=O)(=O)O)cc1.NCC1(CC(=O)O)CC2C3C=CC(C3)C21 (single isomer, unassigned; (+)) [(+)-I-4 p-toluenesulfonate]
Male SD rats; [4]
  abnormal behaviors at 0-24 h after the administration: no obvious abnormal behaviors
  Observation of clinical symptoms 0.5 h: 0
  Observation of clinical symptoms 1 h: 0
  Observation of clinical symptoms 2 h: 0
  Observation of clinical symptoms 4 h: 0
  Observation of clinical symptoms 6 h: 0
  Observation of clinical symptoms 24 h: 0
Male SD rats; [5]
  animal death: no animals are dead
  Observation of clinical symptoms 0.5 h: 0
  Observation of clinical symptoms 1 h: 3
  Observation of clinical symptoms 2 h: 0
  Observation of clinical symptoms 6 h: 0
  Observation of clinical symptoms 24 h: 0
Male SD rats; oral gavage 300 mg/kg (calculated by free base), 300 mg/kg
  Observation of clinical symptoms 4 h: 3 and 0
[1]; [6]
  F (%) calculated based on AUC0-t: 110.25% (calculated
  F (%) calculated based on AUC0-∞: 110.36% (calculated
[1]; gavage, 2.74 mg/kg ((+)-I-3) / 2.73 mg/kg ((+)-I-4)
  t1/2: 1.08 h
[1]; gavage, 2.74 / 2.73 mg/kg
  AUC0-t: 7290 ng·h/mL
  AUC0-∞: 7380 ng·h/mL
  Cmax: 2350 ng/mL
  MRT0-∞: 2.38 h
  Tmax: 1 h
[1]; intravenous injection, 1.10 mg/kg ((+)-I-3) / 1.09 mg/kg ((+)-I-4)
  t1/2: 0.94 h
[1]; [7]
  AUC0-t: 2640 ng·h/mL
  AUC0-∞: 2670 ng·h/mL
  MRT0-∞: 1.63 h
[2]; MES mice, least square fit of administration dose-protection rate curve
  Median effective dose (ED50) for animal protection: 21.51 mg/kg
[2]; [8]
  Number of animals with tonic straightening of hind limbs/total number of detected animals: 7/8
  Protection rate (%): 12.5%
[2]; [9]
  Number of animals with tonic straightening of hind limbs/total number of detected animals: 6/8
  Protection rate (%): 25%
[2]; [10]
  Number of animals with tonic straightening of hind limbs/total number of detected animals: 7/8
  Protection rate (%): 12.5%
[2]; [11]
  Number of animals with tonic straightening of hind limbs/total number of detected animals: 7/12
  Protection rate (%): 41.7%
[2]; [12]
  Number of animals with tonic straightening of hind limbs/total number of detected animals: 3/8
  Protection rate (%): 62.5%
[2]; [13]
  Number of animals with tonic straightening of hind limbs/total number of detected animals: 1/6
  Protection rate (%): 83.3%
[3]; [14]
  Number of animals with clonic seizures/total number: 2/4
  Protection rate (%): 50.0 * %

## CC(C)C[C@H](CN)CC(=O)O [Pregabalin]
Postherpetic neuralgia
  clinical effective rate: 26%-50
[2]; [8]
  Number of animals with tonic straightening of hind limbs/total number of detected animals: 9/12
  Protection rate (%): 25%
[2]; [9]
  Number of animals with tonic straightening of hind limbs/total number of detected animals: 10/12
  Protection rate (%): 16.67%
[2]; [10]
  Number of animals with tonic straightening of hind limbs/total number of detected animals: 6/12
  Protection rate (%): 50%
[2]; [11]
  Number of animals with tonic straightening of hind limbs/total number of detected animals: 5/12
  Protection rate (%): 58.33%
[2]; [12]
  Number of animals with tonic straightening of hind limbs/total number of detected animals: 4/20
  Protection rate (%): 80%
[2]; [13]
  Number of animals with tonic straightening of hind limbs/total number of detected animals: 1/12
  Protection rate (%): 91.66%
[2]; Mus musculus, po, MES mice, least square fit of administration dose-protection rate curve, read-out: Median effective dose (ED50) for animal protection
  ED50: 12 mg/kg
[3]; dose 30 mg/kg
  Number of animals with clonic seizures/total number: 1/6**
  Protection rate (%): 83.3 *** %
